Read-outs that look alike come from different tables or passages of the source.
Columns and labels:
human V1a receptor = target: T1, human V1a receptor (Homo sapiens, UniProt P37288); experiment: cell-based
T1 construct: expressed in transfected cells
Experimental: The V1a receptor is a G-protein coupled receptor, which upon activation triggers an increase in intracellular calcium mobilization. To evaluate compounds for their functional V1a receptor activity, HEK-293 cells were transfected with the human V1a receptor (V1a-HEK cells). HEK-293 cells were grown in DMEM (Dulbecco's modified Eagle Media) supplemented with 10% FBS and glutamine. HEK-cells were passed biweekly by trypsinization and seeded into 96 well plates at 33,000 cells per well. HEK-293 cells were transfected with human V1a receptor DNA using DMRIE-C reagent from Life Technologies (Carlsbad, Calif.). Stable lines were generated by selecting cells grown in culture media containing geneticin. After growing in Packard Clear-View black 96 well plates for 4-6 days, V1a-HEK cells were loaded with the calcium-sensitive fluorescence dye, FLUO-3 AM. Changes in intracellular calcium mobilization were measured by quantitating intracellular fluorescence using FLIPR (Fluorometric Imaging Plate Reader; Molecular Devices, Sunnyvale, Calif.). Test compounds were first added to the cells and the resulting changes in fluorescence measured to detect receptor agonistic activity. Five minutes later the cells were challenged with vasopressin to test compounds for their antagonistic activity. Receptor antagonists inhibit the ability of vasopressin to stimulate increases in intracellular fluorescence.

human V2 receptor = human V2 receptor (Homo sapiens, UniProt P30518); experiment: V2 vasopressin receptor functional activity (cAMP accumulation); type: cell-based; set-up: expressed in transfected cells; host or cells: HEK-293
Sequence of human V2 receptor (P30518 whole entry): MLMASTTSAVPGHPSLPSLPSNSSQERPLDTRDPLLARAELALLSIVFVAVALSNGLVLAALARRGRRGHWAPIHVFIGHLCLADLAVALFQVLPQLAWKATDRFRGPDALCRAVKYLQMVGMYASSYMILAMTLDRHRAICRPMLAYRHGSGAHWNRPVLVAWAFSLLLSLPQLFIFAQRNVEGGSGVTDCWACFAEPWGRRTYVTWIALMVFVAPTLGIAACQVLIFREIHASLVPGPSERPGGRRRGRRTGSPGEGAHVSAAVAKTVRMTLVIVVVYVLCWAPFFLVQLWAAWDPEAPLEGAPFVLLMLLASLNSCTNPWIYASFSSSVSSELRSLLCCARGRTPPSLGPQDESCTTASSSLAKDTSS
Experimental: The V2 receptor is also a G-protein coupled receptor which when activated induces an increase in cAMP turnover. Antagonism against the V2 receptor is determined by measuring cAMP accumulation in transfected HEK-293 cells expressing the human V-2 receptor (V2-HEK cells). Compounds are tested for their ability to block the stimulatory effects of vasopressin on cAMP accumulation. The cell content of cAMP is measured by radioimmunoassay using NEN flashplates.

[1] = V1a-HEK cells, inhibition of vasopressin-stimulated intracellular calcium mobilization, read-out: V1 (functional) IC50
[2] = V2-HEK cells, block of vasopressin-stimulated cAMP accumulation, read-out: V2 (functional) IC50
[3] = V1 (functional) IC50, V1a-HEK cells, inhibition of vasopressin-stimulated intracellular calcium mobilization

T1 sequence (P37288 whole entry): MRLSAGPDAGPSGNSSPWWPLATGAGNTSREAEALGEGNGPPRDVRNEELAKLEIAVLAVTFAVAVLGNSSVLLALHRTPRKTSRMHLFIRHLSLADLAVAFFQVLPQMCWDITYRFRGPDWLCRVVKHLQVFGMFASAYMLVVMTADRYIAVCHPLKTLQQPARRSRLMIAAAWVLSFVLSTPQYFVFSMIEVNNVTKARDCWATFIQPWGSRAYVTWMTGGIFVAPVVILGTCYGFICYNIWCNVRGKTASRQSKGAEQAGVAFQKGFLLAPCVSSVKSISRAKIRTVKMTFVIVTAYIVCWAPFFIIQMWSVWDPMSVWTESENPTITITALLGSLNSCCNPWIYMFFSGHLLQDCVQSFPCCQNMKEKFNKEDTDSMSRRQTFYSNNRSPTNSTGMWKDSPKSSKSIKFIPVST

| IC50 (human V1a receptor; [3]) [nM] | IC50 (human V2 receptor) [nM] | SMILES | IC50 (human V1a receptor; [1]) [nM] | IC50 (human V2 receptor; [2]) [nM] | IC50 (human V1a receptor) [nM] |
| --- | --- | --- | --- | --- | --- |
|  |  | COc1cc(C(=O)N2CC[C@]3(C=C(c4nnn[nH]4)CC3)Cc3ccccc32)ccc1NC(=O)c1cc(F)ccc1Cl [Cpd 11, (R)-N-[3-methoxy-4-(2-chloro-5-fluoro-phenylcarbonyl)amino-phenylcarbonyl]-3-tetrazol-5-yl-spiro[cyclopent-2-ene-1,4′-benzo[b]azepane]] | 63 | 40 |  |
|  |  | COc1cc(C(=O)N2CC[C@]3(C=C(C4=NCCN4)CC3)Cc3ccccc32)ccc1NC(=O)c1cc(F)ccc1Cl [Cpd 12, (R)-N-[3-methoxy-4-(2-chloro-5-fluoro-phenylcarbonyl)amino-phenylcarbonyl]-3-(4,5-dihydro-1H-imidazol-2-yl)-spiro[cyclopent-2-ene-1,4′-benzo[b]azepane]] | 320 | 1100 |  |
|  |  | COc1cc(C(=O)N2CC[C@]3(C=C(C(=O)NS(N)(=O)=O)CC3)Cc3ccccc32)ccc1NC(=O)c1cc(F)ccc1Cl [Cpd 13, (R)-3-aminosulfonylaminocarbonyl-N-[3-methoxy-4-(2-chloro-5-fluoro-phenylcarbonyl)amino-phenylcarbonyl]-spiro[cyclopent-2-ene-1,4′-benzo[b]azepane]] | 27 | 11 |  |
|  |  | COc1cc(C(=O)N2CC[C@]3(C=C(c4ncc[nH]4)CC3)Cc3ccccc32)ccc1NC(=O)c1cc(F)ccc1Cl [Cpd 14, (R)-N-[3-methoxy-4-(2-chloro-5-fluoro-phenylcarbonyl)amino-phenylcarbonyl]-3-(1H-imidazol-2-yl)-spiro[cyclopent-2-ene-1,4′-benzo[b]azepane]] | 95 | 730 |  |
| 90 | 400 | COc1cc(C(=O)N2CC[C@@]3(CCC(=NO)C3)Cc3ccccc32)ccc1NC(=O)c1cc(F)ccc1Cl [Cpd 15, (R)-N-[3-methoxy-4-(2-chloro-5-fluoro-phenylcarbonyl)amino-phenylcarbonyl]-3-hydroxyimino-spiro[cyclopentane-1,4′-benzo[b]azepane]] |  |  |  |
|  |  | COc1cc(C(=O)N2CC[C@@]3(CCC(=CC(=O)O)C3)Cc3ccccc32)ccc1NC(=O)c1cc(F)ccc1Cl [Cpd 16, (R)-N-[3-methoxy-4-(2-chloro-5-fluoro-phenylcarbonyl)amino-phenylcarbonyl]-3-carboxymethylene-spiro[cyclopentane-1,4′-benzo[b]azepane]] |  | 74 | 30 |
|  |  | COc1cc(C(=O)N2CC[C@@]3(CCC(N)C3)Cc3ccccc32)ccc1NC(=O)c1cc(F)ccc1Cl (stereo partly drawn) [Cpd 17, (1R)-3-amino-N-[3-methoxy-4-(2-chloro-5-fluoro-phenylcarbonyl)amino-phenylcarbonyl]-spiro[cyclopentane-1,4′-benzo[b]azepane]] |  | 1100 | 730 |
|  |  | COc1cc(C(=O)N2CC[C@@]3(CCC(N4CCOCC4)C3)Cc3ccccc32)ccc1NC(=O)c1cc(F)ccc1Cl (stereo partly drawn) [Cpd 18, (1R)—N-[3-methoxy-4-(2-chloro-5-fluoro-phenylcarbonyl)amino-phenylcarbonyl]-3-morpholin-4-yl-spiro[cyclopentane-1,4′-benzo[b]azepane]] |  | 1200 | 240 |
| 100 |  | COc1cc(C(=O)N2CC[C@@]3(CCC(NS(N)(=O)=O)C3)Cc3ccccc32)ccc1NC(=O)c1cc(F)ccc1Cl (stereo partly drawn) [Cpd 19, (1R)-3-aminosulfonylamino-N-[3-methoxy-4-(2-chloro-5-fluoro-phenylcarbonyl)amino-phenylcarbonyl]-spiro[cyclopentane-1,4′-benzo[b]azepane]] |  | 120 |  |
|  |  | COc1cc(C(=O)N2CC[C@@]3(CCC(N(C)C)C3)Cc3ccccc32)ccc1NC(=O)c1cc(F)ccc1Cl (stereo partly drawn) [Cpd 20, (1R)—N-[3-methoxy-4-(2-chloro-5-fluoro-phenylcarbonyl)amino-phenylcarbonyl]-3-dimethylamino-spiro[cyclopentane-1,4′-benzo[b]azepane]] | 490 |  |  |
|  |  | COc1cc(C(=O)N2CC[C@@]3(CCC(NCCN(C)C)C3)Cc3ccccc32)ccc1NC(=O)c1cc(F)ccc1Cl (stereo partly drawn) [Cpd 21, (1R)—N-[3-methoxy-4-(2-chloro-5-fluoro-phenylcarbonyl)amino-phenylcarbonyl]-3-(2-dimethylamino-ethyl)amino-spiro[cyclopentane-1,4′-benzo[b]azepane]] |  | 1100 | 170 |
| 290 |  | CON=C1CC[C@@]2(CCN(C(=O)c3ccc(NC(=O)c4cc(F)ccc4Cl)c(OC)c3)c3ccccc3C2)C1 [Cpd 22, (R)—N-[3-methoxy-4-(2-chloro-5-fluoro-phenylcarbonyl)amino-phenylcarbonyl]-3-methoxyimino-spiro[cyclopentane-1,4′-benzo[b]azepane]] |  | 740 |  |
|  |  | COc1cc(C(=O)N2CC[C@@]3(CCC(N4CCN(C)CC4)C3)Cc3ccccc32)ccc1NC(=O)c1cc(F)ccc1Cl (stereo partly drawn) [Cpd 23, (1R)—N-[3-methoxy-4-(2-chloro-5-fluoro-phenylcarbonyl)amino-phenylcarbonyl]-3-(4-methyl-piperazin-1-yl)-spiro[cyclopentane-1,4′-benzo[b]azepane]] | 710 |  |  |
|  |  | COc1cc(C(=O)N2CC[C@@]3(CCC(=NOCC(=O)O)C3)Cc3ccccc32)ccc1NC(=O)c1cc(F)ccc1Cl [Cpd 24, (R)—N-[3-methoxy-4-(2-chloro-5-fluoro-phenylcarbonyl)amino-phenylcarbonyl]-3-carboxymethoxyimino-spiro[cyclopentane-1,4′-benzo[b]azepane]] |  | 220 | 100 |
|  |  | COc1cc(C(=O)N2CC[C@@]3(CCC(N4CCCC4)C3)Cc3ccccc32)ccc1NC(=O)c1cc(F)ccc1Cl (stereo partly drawn) [Cpd 25, (1R)-N-[3-methoxy-4-(2-chloro-5-fluoro-phenylcarbonyl)amino-phenylcarbonyl]-3-(1H-pyrrolidin-1-yl)-spiro[cyclopentane-1,4′-benzo[b]azepane]] |  | 1000 | 810 |
| 4000 |  | COC(=O)C=C1CC[C@@]2(CCN(C(=O)c3ccc(NC(=O)c4cc(F)ccc4Cl)c(OC)c3)c3ccccc3C2)C1 [Cpd 26, (R)—N-[3-methoxy-4-(2-chloro-5-fluoro-phenylcarbonyl)amino-phenylcarbonyl]-3-methoxycarbonylmethylene-spiro[cyclopentane-1,4′-benzo[b]azepane]] |  | 70 |  |
| 130 |  | COc1cc(C(=O)N2CC[C@@]3(CCC(=NN(C)C)C3)Cc3ccccc32)ccc1NC(=O)c1cc(F)ccc1Cl [Cpd 27, (R)—N-[3-methoxy-4-(2-chloro-5-fluoro-phenylcarbonyl)amino-phenylcarbonyl]-3-dimethylaminoimino-spiro[cyclopentane-1,4′-benzo[b]azepane]] |  | 390 |  |
|  |  | COc1cc(C(=O)N2CC[C@@]3(CCC(=CC(=O)NCCN4CCOCC4)C3)Cc3ccccc32)ccc1NC(=O)c1cc(F)ccc1Cl [Cpd 28, (R)—N-[3-methoxy-4-(2-chloro-5-fluoro-phenylcarbonyl)amino-phenylcarbonyl]-3-(2-morpholin-4-yl-ethyl)aminocarbonylmethylene-spiro[cyclopentane-1,4′-benzo[b]azepane]] |  | 200 | 220 |
| 170 |  | COc1cc(C(=O)N2CC[C@@]3(CCC(=CC(=O)NCCO)C3)Cc3ccccc32)ccc1NC(=O)c1cc(F)ccc1Cl [Cpd 29, (R)—N-[3-methoxy-4-(2-chloro-5-fluoro-phenylcarbonyl)amino-phenylcarbonyl]-3-(2-hydroxy-ethyl)aminocarbonylmethylene-spiro[cyclopentane-1,4′-benzo[b]azepane]] |  | 90 |  |
| 210 |  | CNC(=O)C=C1CC[C@@]2(CCN(C(=O)c3ccc(NC(=O)c4cc(F)ccc4Cl)c(OC)c3)c3ccccc3C2)C1 [Cpd 30, (R)—N-[3-methoxy-4-(2-chloro-5-fluoro-phenylcarbonyl)amino-phenylcarbonyl]-3-methylaminocarbonylmethylene-spiro[cyclopentane-1,4′-benzo[b]azepane]] |  | 90 |  |
|  |  | COc1cc(C(=O)N2CC[C@@]3(CCC(=CC(=O)NCCN(C)C)C3)Cc3ccccc32)ccc1NC(=O)c1cc(F)ccc1Cl [Cpd 31, (R)-N-[3-methoxy-4-(2-chloro-5-fluoro-phenylcarbonyl)amino-phenylcarbonyl]-3-(2-dimethylamino-ethyl)aminocarbonylmethylene-spiro[cyclopentane-1,4′-benzo[b]azepane]] |  | 140 | 150 |
| 170 |  | COc1cc(C(=O)N2CC[C@@]3(CCC(=CC(N)=O)C3)Cc3ccccc32)ccc1NC(=O)c1cc(F)ccc1Cl [Cpd 32, (R)-3-aminocarbonylmethylene-N-[3-methoxy-4-(2-chloro-5-fluoro-phenylcarbonyl)amino-phenylcarbonyl]-spiro[cyclopentane-1,4′-benzo[b]azepane]] |  | 34 |  |
